Assay results reported in US7071162B1, “Combined use of cementum attachment protein and cyclosporin a for improved attachment of dental and orthopedic implants” (priority 1997, dated 2006).

Experiments:
periodontal cells = settings: CAP-coated surfaces; Pitaru et al. 1995; cited from earlier work
[1] = tested on: periodontal ligament cells; assay: Attachment and spread of periodontal ligament cells; assay type: cell-based; settings: for attachment and spread of cells from the periodontal ligament: compared with gingival fibroblasts
Description: Cementum attachment protein (CAP) is a protein of molecular mass approximately 56 kDa present in cementum and specifically expressed by mineralized tissue-forming cells of the periodontium. […] The protein has sequences containing Gly-X-Y repeats typical of a collagen helix. SEQ ID NOS 1-5 are fragments of CAP. One 17-amino-acid peptide, SEQ ID NO 2, has 82% homology with a type XII collagen domain. […] Although another 19-amino-acid-long peptide (SEQ ID NO 3) has 95% homology to bovine al (I) collagen, two other peptides, SEQ ID NOS 4 and 5, are only 79% and 68% homologous.

Cementum attachment protein [CAP]
migration and attachment of periodontal cells versus gingival fibroblasts (periodontal cells): migrate in response to and attach better to CAP-coated surfaces than do gingival fibroblasts | capacity to promote attachment of periodontal cells after bacterial collagenase ([1]; bacterial collagenase digestion): eliminate the capacity of CAP to promote attachment of periodontal cells | capacity to promote attachment of periodontal cells after chondroitinase ABC digestion ([1]; chondroitinase ABC digestion): had no effect | attachment and spread of cells from the periodontal ligament [1]: more efficiently than that of gingival fibroblasts

type XIl collagen: collagen type with a domain 82% homologous to SEQ ID NO 2 of CAP [reference compound]
attachment and spread of cells from the periodontal ligament [1]: does not promote the attachment of periodontal ligament cells
